Results: patent publication US6586402B1, “LH-RH peptide analogues, their uses and pharmaceutical compositions containing them” (Laboratoire Theramex, priority 1997, dated 2003)
Where two headings read alike, the source gives them in different places. Square brackets hold non-standard residues; d marks the D form. Peptide text beside a SMILES is read from it. dPhe(4-Cl) = N[C@H](Cc1ccc(Cl)cc1)C(=O)O; d2Nal = N[C@H](Cc1ccc2ccccc2c1)C(=O)O; d(hCit) = NC(=O)NCCCC[C@@H](N)C(=O)O; Lys(iPr) = CC(C)NCCCC[C@H](N)C(=O)O; dCit = NC(=O)NCCC[C@@H](N)C(=O)O; tBuAla = CC(C)(C)C[C@H](N)C(=O)O; d3Pal = N[C@H](Cc1cccnc1)C(=O)O

What was measured:
LH-RH receptors [1] = target: T1, LH-RH receptors (Rattus norvegicus, UniProt P30969)
T1 sequence (P30969 1-327): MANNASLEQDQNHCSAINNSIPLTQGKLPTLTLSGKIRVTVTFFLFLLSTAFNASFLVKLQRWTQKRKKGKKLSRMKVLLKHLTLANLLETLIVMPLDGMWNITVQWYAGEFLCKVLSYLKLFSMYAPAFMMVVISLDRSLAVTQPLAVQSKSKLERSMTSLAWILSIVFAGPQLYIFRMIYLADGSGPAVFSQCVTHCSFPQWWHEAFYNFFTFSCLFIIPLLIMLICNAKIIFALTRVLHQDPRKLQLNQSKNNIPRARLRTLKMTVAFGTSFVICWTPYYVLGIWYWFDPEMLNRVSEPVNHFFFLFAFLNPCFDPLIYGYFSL

LH-RH receptors [2] = target: T1, LH-RH receptors; assay: biochemical
[3] = target: LH-RH receptors (membrane fractions of pituitaries from female Sprague Dawley rats) (rat (female Sprague Dawley)) (UniProt P30969); assay: competition with [125I]-buserelin, rat pituitary membranes; Ki by Cheng-Prusoff
[4] = target: LH-RH receptors (membrane fractions of pituitaries from female Sprague Dawley rats) (rat (female Sprague Dawley)) (UniProt P30969); assay: competition with [125I]-buserelin, rat pituitary membranes

| Compound | % of inhibition of ovulation (LH-RH receptors [1]; 0.25 μg/rat s.c.) | % of inhibition of ovulation (LH-RH receptors [1]; 1 μg/rat s.c.) | Ki (LH-RH receptors [2]) | pKi [3] | pKi [4] | also measured |
| --- | --- | --- | --- | --- | --- | --- |
| CC(=O)N[C@H](Cc1ccc2ccccc2c1)C(=O)N[C@H](Cc1ccc(Cl)cc1)C(=O)N[C@H](Cc1cccnc1)C(=O)N[C@@H](CO)C(=O)N[C@@H](Cc1ccc(O)cc1)C(=O)N[C@H](CCCNC(N)=O)C(=O)N[C@@H](CC(C)(C)C)C(=O)N[C@@H](CCCNC(=N)N)C(=O)N1CCC[C@H]1C(=O)N[C@H](C)C(N)=O [Example 16, AcD-Nal-D-pClPhe-D-Pal-Ser-Tyr-D-Cit-Npg-Arg-Pro-D-Ala-NH2] (Ac-[d2Nal][dPhe(4-Cl)][d3Pal]SY[dCit][tBuAla]RP[dA]-NH2) | 20% | 100% | 67.6 pM |  |  | Number of ovulating females/total number of treated females (LH-RH receptors [1]; 0.25 μg/rat s.c.): 4/5; Number of ovulating females/total number of treated females (LH-RH receptors [1]; 1 μg/rat s.c.): 0/5; antiovulatory activity in words (LH-RH receptors [1]; 1 μg/rat s.c.): maximal or sub-maximal activity |
| CC(=O)N[C@H](Cc1ccc2ccccc2c1)C(=O)N[C@H](Cc1ccc(Cl)cc1)C(=O)N[C@H](Cc1cccnc1)C(=O)N[C@@H](CO)C(=O)N[C@@H](Cc1ccc(O)cc1)C(=O)N[C@H](CCCNC(N)=O)C(=O)N[C@@H](CC(C)(C)C)C(=O)N[C@@H](CCCCNC(C)C)C(=O)N1CCC[C@H]1C(=O)N[C@H](C)C(N)=O [Example 17, AcD-Nal-D-pClPhe-D-Pal-Ser-Tyr-D-Cit-Npg-IprLys-Pro-D-Ala-NH2] (Ac-[d2Nal][dPhe(4-Cl)][d3Pal]SY[dCit][tBuAla][Lys(iPr)]P[dA]-NH2) | 80% | 100% | 191 pM |  |  | Number of ovulating females/total number of treated females (LH-RH receptors [1]; 0.25 μg/rat s.c.): 1/5; % of inhibition of ovulation (LH-RH receptors [1]; 0.5 μg/rat s.c.): 43%; Number of ovulating females/total number of treated females (LH-RH receptors [1]; 0.5 μg/rat s.c.): 4/7; % of inhibition of ovulation (LH-RH receptors [1]; 0.75 μg/rat s.c.): 100%; Number of ovulating females/total number of treated females (LH-RH receptors [1]; 0.75 μg/rat s.c.): 0/7; Number of ovulating females/total number of treated females (LH-RH receptors [1]; 1 μg/rat s.c.): 0/12; antiovulatory activity in words (LH-RH receptors [1]; 1 μg/rat s.c.): maximal or sub-maximal activity; dose relation of the inhibition of ovulation, in words (LH-RH receptors [1]; dose range studied, s.c.): especially active, but its effects were not related to the dose |
| Antide (peptide) |  |  |  | 9.16 -log Ki | > 9 -log Ki |  |
| Deslorelin (peptide) |  |  |  | 9.9 -log Ki | > 9 -log Ki |  |
| Histrelin (peptide) |  |  |  | 9.98 -log Ki | > 9 -log Ki |  |

Further lines, with some results ahead:

| % of inhibition of ovulation (LH-RH receptors [1]; 0.25 μg/rat s.c.) | % of inhibition of ovulation (LH-RH receptors [1]; 1 μg/rat s.c.) | Ki (LH-RH receptors [2]) | pKi [3] | pKi [4] | Compound | also measured |
| --- | --- | --- | --- | --- | --- | --- |
| 20% | 80% | 85.1 pM |  |  | CC(=O)N[C@H](Cc1ccc2ccccc2c1)C(=O)N[C@H](Cc1ccc(Cl)cc1)C(=O)N[C@H](Cc1cccnc1)C(=O)N[C@@H](CO)C(=O)N[C@@H](Cc1ccc(O)cc1)C(=O)N[C@H](CCCCNC(N)=O)C(=O)N[C@@H](CC(C)(C)C)C(=O)N[C@@H](CCCCNC(C)C)C(=O)N1CCC[C@H]1C(=O)N[C@H](C)C(N)=O [Example 18, AcD-Nal-D-pClPhe-D-Pal-Ser-Tyr-D-HCit-Npg-IprLys-Pro-D-Ala-NH2] (Ac-[d2Nal][dPhe(4-Cl)][d3Pal]SY[d(hCit)][tBuAla][Lys(iPr)]P[dA]-NH2) |  |
| 40% | 100% | 77.6 pM |  |  | CC(=O)N[C@H](Cc1ccc2ccccc2c1)C(=O)N[C@H](Cc1ccc(Cl)cc1)C(=O)N[C@H](Cc1cccnc1)C(=O)N[C@@H](CO)C(=O)N[C@@H](Cc1ccc(O)cc1)C(=O)N[C@H](CCCCNC(N)=O)C(=O)N[C@@H](CC(C)(C)C)C(=O)N[C@@H](CCCNC(=N)N)C(=O)N1CCC[C@H]1C(=O)N[C@H](C)C(N)=O [Example 19, AcD-Nal-D-pClPhe-D-Pal-Ser-Tyr-D-HCit-Npg-Arg-Pro-D-Ala-NH2] (Ac-[d2Nal][dPhe(4-Cl)][d3Pal]SY[d(hCit)][tBuAla]RP[dA]-NH2) |  |
|  |  |  | 9.35 -log Ki | > 9 -log Ki | Buserelin (peptide) |  |
